Experimental data: publication PMC12081876, “Identification of PTGR2 inhibitors as a new therapeutic strategy for diabetes and obesity” (EMBO Molecular Medicine, 2025)
“And” between values parts separate entries of the source, which are not always exact repeats. Equal values may be shown once. Blank lines part the entries; values can stand above or below the compound they belong to.

How the values were obtained:
mPPARγ-downstream genes = assay: RT-qPCR of Glut4 and other mPPARγ-downstream genes in differentiated 3T3-L1 adipocytes; assay type: cell-based, mouse
Description: The cell lines, which were tested for mycoplasma contamination and authenticated, were purchased from the Bioresource Collection and Research Center, Taiwan. All cells were cultured at 37 °C, 5% CO2 in a humidified incubator. HEK293T cells were maintained in DMEM (cat. no. SH30003.02, HyClone) supplemented with 10% fetal bovine serum (FBS) (cat. no. 04-001-1A, Biological Industries) and 1% antibiotic/antimycotic solution (cat. no. SV30079.01, HyClone). 3T3-L1 preadipocytes were maintained at ~70% confluence in DMEM with 10% calf serum (cat. no. 16170078, Gibco) and 1% antibiotic/antimycotic solution. For adipocyte differentiation, confluent 3T3-L1 cells (defined as day 0) were exposed to an induction medium containing 10% FBS, 1 μM dexamethasone (cat. no. D4902, Sigma-Aldrich), and 1 μg/ml insulin (Humulin R, Eli Lilly) in DMEM with or without 0.5 mM isobutyl-methylxanthine (cat. no. sc-201188A, Santa Cruz Biotechnology) as indicated. After two days, the medium was replaced with DMEM containing 10% FBS and 1 μg/ml insulin and was replenished every two days until assay.
A total of 1 × 10^5 3T3-L1 preadipocytes were seeded in 6-well plates and differentiated for six days. The 3T3-L1 adipocytes were then harvested in 1 ml of REzol C&T (cat. no. PT-KP200CT, Protech), and total RNA was extracted according to the manufacturer’s instructions with slight modifications. Briefly, 200 μl of chloroform were added to 1 ml of sample in REzol, and samples were vigorously mixed by shaking for 30 s, followed by incubation at room temperature for 5 min. Then, samples were centrifuged at 12,000 × g for 15 min at 4 °C, and 400 μl of the upper aqueous phase were transferred to a new 1.5-ml tube. An equal volume of isopropanol was added. Samples were inverted several times for mixing and then centrifuged at 12,000 × g for 10 min at 4 °C. The RNA precipitate, which formed a pellet at the bottom of the 1.5-ml tube, was washed three times with 75% ethanol and air-dried for 15 min. Pellets were dissolved in RNase-free water. The concentration of RNA was measured using Nanodrop. cDNA was synthesized using a reverse transcription kit (cat. no. K1622, Thermo Scientific) using the oligo(dT)18 primers. RT-qPCR was performed in a 10-μl reaction with 50 ng cDNA and 0.2 μM primer using SYBR green reagent (cat. no. 11203ES08, YEASEN). Mouse peptidylprolyl isomerase A (Ppia) mRNA was used as the internal control. RT-qPCR reactions were performed using ABI 7900HT FAST (Applied Biosystems) and Sequence Detection Systems (SDS v2.3, Applied Biosystems). All qPCR reactions were run in duplicates. The primers used are listed in Appendix Table S3.

wild-type mPPARγ = target: T1, wild-type mPPARγ (Mus musculus, UniProt P37238); assay: PPRE reporter assay in HEK293T cells, wild-type mPPARγ; assay type: cell-based, murine; set-up: key to PPRE reporter activity, Fig 1M replicates: luciferase activity normalized to TK reporter signal; settings: for PPRE reporter activity, Fig 1M replicates: PPARg WT
T1 construct: host or cells: HEK293T
T1 sequence (P37238 1-505): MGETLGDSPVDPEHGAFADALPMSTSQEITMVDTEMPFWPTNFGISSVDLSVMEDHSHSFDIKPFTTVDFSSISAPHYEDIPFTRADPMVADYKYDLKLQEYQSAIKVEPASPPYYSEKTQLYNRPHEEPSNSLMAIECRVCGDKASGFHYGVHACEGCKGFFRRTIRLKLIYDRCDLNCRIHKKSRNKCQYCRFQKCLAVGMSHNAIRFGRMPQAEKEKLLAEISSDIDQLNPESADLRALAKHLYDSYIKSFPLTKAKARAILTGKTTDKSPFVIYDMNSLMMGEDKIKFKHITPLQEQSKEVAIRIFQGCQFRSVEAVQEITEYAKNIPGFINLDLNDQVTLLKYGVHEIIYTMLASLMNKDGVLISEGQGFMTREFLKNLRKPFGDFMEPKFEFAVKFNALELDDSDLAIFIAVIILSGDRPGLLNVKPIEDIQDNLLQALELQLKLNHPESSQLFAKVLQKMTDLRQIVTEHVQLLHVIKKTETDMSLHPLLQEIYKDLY
Description: For PPRE reporter assay, HEK293T cells were seeded in 24-well plates at 1 × 10^5 cells/well. […] The luciferase activity was measured by Luc-Pair™ Duo-Luciferase HS Assay Kit (cat. no. LF600, Promega, USA) and normalized to the TK reporter signal.

phospho-Akt = assay: Insulin signaling in vivo (phospho-Akt immunoblot); set-up: species or system mouse; settings: 40 mg/kg/day ip, HFHSD-fed mice, vs vehicle
Description: To evaluate insulin signaling in vivo, mice were fasted overnight. Tissue was harvested 15 min after intraperitoneal insulin injection. The samples (perigonadal fat, inguinal fat, brown adipose tissue and liver) were extracted with RIPA buffer (50 mM Tris-HCl, pH 7.4, 2 mM ethylenediaminetetraacetic acid [EDTA]), 150 mM NaCl, 50 mM NaF, 1% Nonidet P-40, 1 mM phenylmethylsulfonyl fluoride [PMSF], 0.5% sodium deoxycholate, and 0.1% sodium dodecyl sulfate [SDS]) containing phosphatase inhibitor cocktail (cat. no. 04693132001, Roche) and homogenized. The homogenates were then centrifuged at 13,000 rpm for 10 min at 4 °C to remove debris. Samples were separated by SDS-polyacrylamide gel electrophoresis, transferred to polyvinylidene difluoride (PVDF) membrane, blocked with 3% BSA, and probed with anti-phospho-Akt antibody (cat. no. 4058, Cell Signaling) and anti-Akt antibody (cat. no. 9272, Cell Signaling), and then with HRP conjugated anti-rabbit IgG antibody (1:10,000; cat. no. GTX26721, GeneTex).

PPRE reporter activity, Fig 1M replicates (wild-type mPPARγ; 1314dh-15kPGE2 5uM): 0.8192 and 0.7939 and 0.9277
PPRE reporter activity, Fig 1M replicates (wild-type mPPARγ; 1314dh-15kPGE2 10uM): 1.0416 and 0.7874 and 1.0502
SMILES: CCCCCC(=O)CC[C@H]1[C@H](O)CC(=O)[C@@H]1C/C=C\CCCC(=O)O [13,14-dihydro-15-keto-PGE2]
Adipoq RT-qPCR, Fig 1I replicates (mPPARγ-downstream genes; 13,14dh-15kPGE2 10μM): 1.319 and 1.153 and 1.286
Cepba RT-qPCR, Fig 1H replicates (mPPARγ-downstream genes; 13,14dh-15kPGE2 10μM): 1.374 and 0.7769 and 0.716
Acs RT-qPCR, Fig 1G replicates (mPPARγ-downstream genes; 13,14dh-15kPGE2 10): 1.301 and 1.081 and 1.404
Cd36 RT-qPCR, Fig 1F replicates (mPPARγ-downstream genes; 13,14dh-15kPGE2 10): 1.404 and 1.223 and 0.9692
Glut4 RT-qPCR, Fig 1C replicates (mPPARγ-downstream genes; 13,14dh-15kPGE2 10): 1.898 and 2.106 and 1.673
Irs2 RT-qPCR, Fig 1D replicates (mPPARγ-downstream genes; 13,14dh-15kPGE2 10): 0.9456 and 0.6593 and 0.5678
Sorbs1 RT-qPCR, Fig 1E replicates (mPPARγ-downstream genes; 13,14dh-15kPGE2 10): 1.1258 and 0.882 and 0.8066

PPRE reporter activity, Fig 1M replicates (wild-type mPPARγ; 15kPGE2 1uM): 0.8257 and 0.8644 and 0.9986
PPRE reporter activity, Fig 1M replicates (wild-type mPPARγ; 15kPGE2 5uM): 1.6663 and 1.771 and 1.8768
PPRE reporter activity, Fig 1M replicates (wild-type mPPARγ; 15kPGE2 10uM): 2.316 and 1.9846 and 1.9282
SMILES: CCCCCC(=O)/C=C/[C@H]1[C@H](O)CC(=O)[C@@H]1C/C=C\CCCC(=O)O [15-keto-PGE2, 15-keto-prostaglandin E2]
Expression of Glut4 and other PPARγ-downstream genes (Irs2, Sorbs1, Cd36, Acs, Cebpa, Adipq) (mPPARγ-downstream genes; 3T3-L1 adipocytes): significantly increased
Adipoq RT-qPCR, Fig 1I replicates (mPPARγ-downstream genes; 15kPGE2 1μM): 1.0415 and 1.163 and 1.453
Cepba RT-qPCR, Fig 1H replicates (mPPARγ-downstream genes; 15kPGE2 1μM): 1.584 and 1.855 and 1.4452
Adipoq RT-qPCR, Fig 1I replicates (mPPARγ-downstream genes; 15kPGE2 5μM): 2.354 and 2.11 and 2.081
Cepba RT-qPCR, Fig 1H replicates (mPPARγ-downstream genes; 15kPGE2 5μM): 1.743 and 1.998 and 2.055
Adipoq RT-qPCR, Fig 1I replicates (mPPARγ-downstream genes; 15kPGE2 10μM): 2.022 and 2.345 and 2.444
Cepba RT-qPCR, Fig 1H replicates (mPPARγ-downstream genes; 15kPGE2 10μM): 2.675 and 2.195 and 2.109
Acs RT-qPCR, Fig 1G replicates (mPPARγ-downstream genes; 15kPGE2 1): 1.074 and 1.165 and 0.8587
Cd36 RT-qPCR, Fig 1F replicates (mPPARγ-downstream genes; 15kPGE2 1): 1.042 and 1.096 and 0.9399
Glut4 RT-qPCR, Fig 1C replicates (mPPARγ-downstream genes; 15kPGE2 1): 1.309 and 1.263 and 1.257
Irs2 RT-qPCR, Fig 1D replicates (mPPARγ-downstream genes; 15kPGE2 1): 1.164 and 1.43 and 1.116
Sorbs1 RT-qPCR, Fig 1E replicates (mPPARγ-downstream genes; 15kPGE2 1): 1.214 and 1.379 and 1.0658
Acs RT-qPCR, Fig 1G replicates (mPPARγ-downstream genes; 15kPGE2 5): 1.251 and 1.575 and 1.53
Cd36 RT-qPCR, Fig 1F replicates (mPPARγ-downstream genes; 15kPGE2 5): 1.448 and 1.619 and 1.287
Glut4 RT-qPCR, Fig 1C replicates (mPPARγ-downstream genes; 15kPGE2 5): 2.797 and 2.997 and 3.11
Irs2 RT-qPCR, Fig 1D replicates (mPPARγ-downstream genes; 15kPGE2 5): 1.3621 and 1.275 and 1.386
Sorbs1 RT-qPCR, Fig 1E replicates (mPPARγ-downstream genes; 15kPGE2 5): 1.2593 and 1.694 and 1.702
Acs RT-qPCR, Fig 1G replicates (mPPARγ-downstream genes; 15kPGE2 10): 2.4974 and 2.133 and 2.44
Cd36 RT-qPCR, Fig 1F replicates (mPPARγ-downstream genes; 15kPGE2 10): 2.006 and 2.309 and 1.915
Glut4 RT-qPCR, Fig 1C replicates (mPPARγ-downstream genes; 15kPGE2 10): 7.333 and 8.598 and 7.543
Irs2 RT-qPCR, Fig 1D replicates (mPPARγ-downstream genes; 15kPGE2 10): 2.078 and 2.094 and 1.997
Sorbs1 RT-qPCR, Fig 1E replicates (mPPARγ-downstream genes; 15kPGE2 10): 2.379 and 1.942 and 1.911
PPRE reporter activity, wild-type mPPARγ (wild-type mPPARγ; HEK293T): dose-dependently increases the reporter activity of PPARγ
phospho-Akt after insulin injection (immunoblot) (phospho-Akt): increased phospho-Akt in perigonadal fat, inguinal fat, brown adipose tissue, and liver
